# Data from patent publication US20250320189A1, “NEW DERIVATIVES FOR TREATING TRPM3 MEDIATED DISORDERS” (Katholieke Universiteit Leuven, priority 2022, published 2025).
# Target: T1, mouse TRPM3α2 (mTRPM3) ion channel (Mus musculus, UniProt J9SQF3)
# T1 construct: expressed in transfected cells; host or cells: flip-in (Flp-In) HEK293
# Test: Monitoring the TRPM3 ion channel driven Ca2+ uptake (Fluo-4 AM assay)
# Type: cell-based
# Details: mTRPM3alpha2 overexpressing flip-in HEK293 cells, stimulated with Pregnenolone sulfate (PS) 50 μM
# Experimental: In order to monitor the inhibition of the mouse TRPM3α2 (mTRPM3) ion channel by the compounds of the invention, a cellular system making use of an mTRPM3alpha2 or hTRPM3 overexpressing cell line (flip-in HEK293) was used. The TRPM3 channel was stimulated/opened with Pregnenolone sulfate (PS) (50 μM) which results in Ca^2+ influx.
# For mTRPM3, the intracellular Ca^2+ was measured with a Calcium responsive dye, Fluor-4 AMV ester (Invitrogen). Cells were cultured until a confluence of 80-90%, washed with Versene (Invitrogen) and detached from the surface by a short incubation with 0.05% Trypsin (Invitrogen). The trypsination process was stopped by the addition of complete cell culture medium (DMEM, glutamax, 10% FCS, NEAA,Pen-Strep). Cells were collected and resuspended in Krebs buffer without Calcium at RT.
# Prior the cell seeding (±2000 cells/well into a black, 384 well plate (Greiner)) the diluted compound was added in the assay plate, together with the PS dissolved in Krebs buffer containing Calcium. […] Directly after cell addition the plates were read on an Envision fluorescence reader (PerkinElmer) by an Excitation of 485 nm and emission at 535 nm.
# Channel inhibition was calculated compared to a non-PS stimulated control versus a condition stimulated with PS (50 μM) with vehicle. The ability of the compounds of the invention to inhibit this activity was determined as: Percentage inhibition=[1−((RFU determined for sample with test compound present−RFU determined for sample with positive control inhibitor) divided by (RFU determined in the presence of vehicle−RFU determined for sample with positive control inhibitor))]*100.
# The activities of the Example compounds tested are depicted in the table below. The activity ranges A, B and C refer to IC50 values in the Fluo-4 AM assay as follows: “A”: IC50<1 μM; “B”: 1 μM≤IC50≤20 μM and “C”: IC50>20 μM
# T1 sequence (J9SQF3 1-1709 isoform J9SQF3-12): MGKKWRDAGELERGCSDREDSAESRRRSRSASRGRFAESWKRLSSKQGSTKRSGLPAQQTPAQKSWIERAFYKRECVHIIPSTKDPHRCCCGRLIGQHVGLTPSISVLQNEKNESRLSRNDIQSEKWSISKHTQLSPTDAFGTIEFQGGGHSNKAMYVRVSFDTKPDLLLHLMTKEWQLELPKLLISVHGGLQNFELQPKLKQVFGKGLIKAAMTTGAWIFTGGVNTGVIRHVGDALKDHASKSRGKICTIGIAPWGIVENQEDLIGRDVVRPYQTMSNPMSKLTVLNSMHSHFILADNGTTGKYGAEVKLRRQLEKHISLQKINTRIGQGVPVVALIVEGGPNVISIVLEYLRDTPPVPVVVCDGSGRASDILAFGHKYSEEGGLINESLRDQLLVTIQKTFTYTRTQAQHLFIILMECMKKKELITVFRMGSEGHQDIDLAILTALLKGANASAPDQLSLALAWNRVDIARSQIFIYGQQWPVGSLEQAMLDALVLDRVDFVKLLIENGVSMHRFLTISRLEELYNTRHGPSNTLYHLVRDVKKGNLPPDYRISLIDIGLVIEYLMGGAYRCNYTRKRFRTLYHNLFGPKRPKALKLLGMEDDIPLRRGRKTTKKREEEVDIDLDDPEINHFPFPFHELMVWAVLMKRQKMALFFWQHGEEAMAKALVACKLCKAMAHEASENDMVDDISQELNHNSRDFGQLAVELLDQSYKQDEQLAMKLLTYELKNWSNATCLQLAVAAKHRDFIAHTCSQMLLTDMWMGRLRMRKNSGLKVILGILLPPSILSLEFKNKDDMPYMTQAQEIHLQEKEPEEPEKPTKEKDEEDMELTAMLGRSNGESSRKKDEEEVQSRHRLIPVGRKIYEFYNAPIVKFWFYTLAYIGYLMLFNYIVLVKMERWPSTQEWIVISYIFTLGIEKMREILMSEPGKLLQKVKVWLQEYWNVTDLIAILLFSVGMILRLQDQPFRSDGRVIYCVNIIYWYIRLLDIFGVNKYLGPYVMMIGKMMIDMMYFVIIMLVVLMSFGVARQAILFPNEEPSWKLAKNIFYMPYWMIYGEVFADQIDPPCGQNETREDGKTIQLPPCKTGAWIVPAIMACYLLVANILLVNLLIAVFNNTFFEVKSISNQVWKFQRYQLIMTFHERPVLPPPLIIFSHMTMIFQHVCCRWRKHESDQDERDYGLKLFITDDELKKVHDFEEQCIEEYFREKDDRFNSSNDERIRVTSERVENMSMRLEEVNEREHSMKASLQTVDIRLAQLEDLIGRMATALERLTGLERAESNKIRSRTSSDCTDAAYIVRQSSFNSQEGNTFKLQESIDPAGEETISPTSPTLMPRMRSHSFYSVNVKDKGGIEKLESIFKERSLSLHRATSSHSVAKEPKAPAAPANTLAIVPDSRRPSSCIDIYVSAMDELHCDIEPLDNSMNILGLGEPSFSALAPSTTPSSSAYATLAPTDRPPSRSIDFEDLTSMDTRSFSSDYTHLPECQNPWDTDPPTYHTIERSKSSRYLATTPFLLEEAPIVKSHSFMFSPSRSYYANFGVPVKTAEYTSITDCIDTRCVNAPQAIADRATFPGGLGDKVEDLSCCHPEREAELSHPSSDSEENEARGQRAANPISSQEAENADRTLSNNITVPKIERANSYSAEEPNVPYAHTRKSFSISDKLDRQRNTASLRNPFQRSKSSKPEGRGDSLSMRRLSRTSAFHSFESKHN
row,IC50,SMILES
1,1000 to 20000 nM,"Cc1oc2ccc(OCC3CC3)cc2c1C(=O)NC1CCCNC1=O (single isomer, unassigned) [Cpd 055 - En2, 5-(cyclopropylmethoxy)-2-methyl-N-(2-oxopiperidin-3-yl)-1-benzofuran-3-carboxamide]"
2,< 1000 nM,"Cc1oc2ccc(OC[C@H]3C[C@@H]4C[C@@H]4C3)cc2c1C(=O)NC(C)(CO)C(N)=O (single isomer, unassigned) [Cpd 051 - En2, Trans-2-{[5-({bicyclo[3.1.0]hexan-3-yl}methoxy)-2-methyl-1-benzofuran-3-yl]formamido}-3-hydroxy-2-methylpropanamide]"
3,< 1000 nM,"Cc1oc2ccc(OCC3CC3(F)F)cc2c1C(=O)NC(CO)CC(F)(F)F (single isomer, unassigned) [Cpd 057 - En1, 5-[(2,2-difluorocyclopropyl)methoxy]-2-methyl-N-(4,4,4-trifluoro-1-hydroxybutan-2-yl)-1-benzofuran-3-carboxamide]"
4,< 1000 nM,"Cc1oc2ccc(OCC3CC3(C)C)cc2c1C(=O)NC(C)(CO)C(N)=O (single isomer, unassigned) [Cpd 049 - En3, 2-({5-[(2,2-dimethylcyclopropyl)methoxy]-2-methyl-1-benzofuran-3-yl}formamido)-3-hydroxy-2-methylpropanamide]"
5,< 1000 nM,"Cc1oc2cc(F)c(OCC3CC3)cc2c1C(=O)NC(C)(CO)C(N)=O (single isomer, unassigned) [Cpd 045 - En1, 2-{[5-(cyclopropylmethoxy)-6-fluoro-2-methyl-1-benzofuran-3-yl]formamido}-3-hydroxy-2-methylpropanamide]"
6,1000 to 20000 nM,"Cc1oc2ccc(OC[C@@H]3C[C@@H]4C[C@@H]4C3)cc2c1C(=O)NC(C)(CO)C(N)=O (single isomer, unassigned) [Cpd 050 - En1, Cis-2-{[5-({bicyclo[3.1.0]hexan-3-yl}methoxy)-2-methyl-1-benzofuran-3-yl]formamido}-3-hydroxy-2-methylpropanamide]"
7,< 1000 nM,"Cc1oc2ccc(OCC(F)F)cc2c1C(=O)NC1(C(N)=O)CCOC1 (single isomer, unassigned) [Cpd 044 - En2, N-(3-carbamoyloxolan-3-yl)-5-(2,2-difluoroethoxy)-2-methyl-1-benzofuran-3-carboxamide]"
8,1000 to 20000 nM,"Cc1oc2ccc(OCC(C)(C)C)cc2c1C(=O)NC1CCNCC1(F)F (single isomer, unassigned) [Cpd 043-En1, N-(3,3-difluoropiperidin-4-yl)-5-(2,2-dimethylpropoxy)-2-methyl-1-benzofuran-3-carboxamide]"
9,< 1000 nM,"Cc1oc2ccc(OCC(C)C)cc2c1C(=O)NC1CCNCC1(F)F (single isomer, unassigned) [Cpd 042 - En2, N-(3,3-difluoropiperidin-4-yl)-2-methyl-5-(2-methylpropoxy)-1-benzofuran-3-carboxamide]"
10,< 1000 nM,"Cc1oc2ccc(OCC3CC3)cc2c1C(=O)N[C@H](CO)C(N)=O [Cpd 009, (2R)-2-{[5-(cyclopropylmethoxy)-2-methyl-1-benzofuran-3-yl]formamido}-3-hydroxypropanamide]"
11,1000 to 20000 nM,"Cc1oc2ccc(OCC3CC3(C)C)cc2c1C(=O)NC1CCNCC1(F)F (single isomer, unassigned) [Cpd 033-En1, N-(3,3-difluoropiperidin-4-yl)-5-[(2,2-dimethylcyclopropyl)methoxy]-2-methyl-1-benzofuran-3-carboxamide]"
12,< 1000 nM,"Cc1oc2ccc(OCC3(C(F)F)CC3)cc2c1C(=O)N[C@H](C(N)=O)[C@@H](C)O [Cpd 011, (2S,3R)-2-[(5-{[1-(difluoromethyl)cyclopropyl]methoxy}-2-methyl-1-benzofuran-3-yl)formamido]-3-hydroxybutanamide]"
13,< 1000 nM,"Cc1oc2ccc(OCC3CC3)cc2c1C(=O)NC(C)(CO)CC(F)F (single isomer, unassigned) [Cpd 046 - En1, 5-(cyclopropylmethoxy)-N-(4,4-difluoro-1-hydroxy-2-methylbutan-2-yl)-2-methyl-1-benzofuran-3-carboxamide]"
14,> 20000 nM,"Cc1oc2ccc(OCC3CCCCC3)cc2c1C(=O)NC1CCN(C)CC1 [Cpd 020, 5-(cyclohexylmethoxy)-2-methyl-N-(1-methylpiperidin-4-yl)-1-benzofuran-3-carboxamide]"
15,< 1000 nM,"Cc1oc2ccc(OCC3CC3(C)C)cc2c1C(=O)NC(C)(CO)C(N)=O (single isomer, unassigned) [Cpd 049 - En1, 2-({5-[(2,2-dimethylcyclopropyl)methoxy]-2-methyl-1-benzofuran-3-yl}formamido)-3-hydroxy-2-methylpropanamide]"
16,< 1000 nM,"Cc1oc2ccc(OCC3CC3)cc2c1C(=O)NC(CO)C(N)C(F)(F)F (single isomer, unassigned) [Cpd 056 - En3, N-[(2)-3-amino-4,4,4-trifluoro-1-hydroxybutan-2-yl]-5-(cyclopropylmethoxy)-2-methyl-1-benzofuran-3-carboxamide]"
17,< 1000 nM,"Cc1oc2ccc(OCC3CC3(F)F)cc2c1C(=O)N[C@@H](CO)C(N)=O (single isomer, unassigned) [Cpd 002 - En2]"
18,1000 to 20000 nM,"Cc1oc2ccc(OCC3CC3(C)C)cc2c1C(=O)NC1CCNCC1(F)F (single isomer, unassigned) [Cpd 033-En2, N-(3,3-difluoropiperidin-4-yl)-5-[(2,2-dimethylcyclopropyl)methoxy]-2-methyl-1-benzofuran-3-carboxamide]"
19,1000 to 20000 nM,"Cc1oc2ccc(OCC3CC3(C)C)cc2c1C(=O)NC1CCNCC1(F)F (single isomer, unassigned) [Cpd 033-En4, N-(3,3-difluoropiperidin-4-yl)-5-[(2,2-dimethylcyclopropyl)methoxy]-2-methyl-1-benzofuran-3-carboxamide]"
20,< 1000 nM,"Cc1oc2ccc(OCC3CC3)cc2c1C(=O)NC(C)(C)C(N)=O [Cpd 016, 2-{[5-(cyclopropylmethoxy)-2-methyl-1-benzofuran-3-yl]formamido}-2-methylpropanamide]"
21,< 1000 nM,"Cc1oc2ccc(OCC3CCC3)cc2c1C(=O)NC1CCNCC1(F)F (single isomer, unassigned) [Cpd 019 - En2, 5-(cyclobutylmethoxy)-N-(3,3-difluoropiperidin-4-yl)-2-methyl-1-benzofuran-3-carboxamide]"
22,< 1000 nM,"Cc1oc2ccc(OCC3CC3)cc2c1C(=O)NC1(CO)CCNC1=O (single isomer, unassigned) [Cpd 028 - En2, 5-(cyclopropylmethoxy)-N-[3-(hydroxymethyl)-2-oxopyrrolidin-3-yl]-2-methyl-1-benzofuran-3-carboxamide]"
23,1000 to 20000 nM,"Cc1oc2ccc(OCC3CC3)cc2c1C(=O)NC1CCNCC1(F)F (single isomer, unassigned) [Cpd 024-En1, 5-(cyclopropylmethoxy)-N-(3,3-difluoropiperidin-4-yl)-2-methyl-1-benzofuran-3-carboxamide]"
24,< 1000 nM,"Cc1oc2ccc(OCC(F)F)cc2c1C(=O)NC(C)(CO)C(N)=O (single isomer, unassigned) [Cpd 041 - En1, 2-{[5-(2,2-difluoroethoxy)-2-methyl-1-benzofuran-3-yl]formamido}-3-hydroxy-2-methylpropanamide]"
25,1000 to 20000 nM,"Cc1oc2ccc(OCC3CC3)cc2c1C(=O)NC1(CO)CC1 [Cpd 026, 5-(cyclopropylmethoxy)-N-[1-(hydroxymethyl)cyclopropyl]-2-methyl-1-benzofuran-3-carboxamide]"
26,< 1000 nM,"Cc1oc2ccc(OC[C@H]3C[C@@H](C)C3)cc2c1C(=O)NC(C)(CO)C(N)=O (single isomer, unassigned) [Cpd 058 - En1, Cis-3-hydroxy-2-methyl-2-({2-methyl-5-[(3-methylcyclobutyl)methoxy]-1-benzofuran-3-yl}formamido)propenamide]"
27,< 1000 nM,"Cc1oc2ccc(OCC3CC3)cc2c1C(=O)NC1(C(N)=O)CCOCC1 [Cpd 037, N-(4-carbamoyloxan-4-yl)-5-(cyclopropylmethoxy)-2-methyl-1-benzofuran-3-carboxamide]"
28,< 1000 nM,"Cc1oc2ccc(OCC3CC3(C)C)cc2c1C(=O)NC1CCNCC1(F)F (single isomer, unassigned) [Cpd 033-En3, N-(3,3-difluoropiperidin-4-yl)-5-[(2,2-dimethylcyclopropyl)methoxy]-2-methyl-1-benzofuran-3-carboxamide]"
29,1000 to 20000 nM,"Cc1oc2ccc(OC[C@H]3C[C@@H](C)C3)cc2c1C(=O)NC(C)(CO)C(N)=O (single isomer, unassigned) [Cpd 058 - En2, Cis-3-hydroxy-2-methyl-2-({2-methyl-5-[(3-methylcyclobutyl)methoxy]-1-benzofuran-3-yl}formamido)propenamide]"
30,< 1000 nM,"Cc1oc2ccc(OCC3CCCC3(F)F)cc2c1C(=O)NC(CO)C(N)=O (stereo not drawn) [Cpd 013, 2-({5-[(2,2-difluorocyclopentyl)methoxy]-2-methyl-1-benzofuran-3-yl}formamido)-3-hydroxypropanamide]"
